Values after ≈ are worked out from the molar mass of the structure shown. Read-outs that look alike come from different tables or passages of the source.
What was measured:
Solubility in water = assay type: physicochemical; conditions: for solubility: deionized water at 25° C.
Description: |Solubility in deionized water at 25° C.

[1] = tested on: Corynebacterium pyrogenes C-21; test: In vitro antibacterial activity (MIC); assay type: cell-based; conditions: C21; Corynebacterium pyrogenes C-21; in vitro; read-out: minimum inhibitory concentration (MIC)
Excerpt: (§1) The numerals in the table show minimum inhibitory concentrations (MIC)

[2] = tested on: Enterobacter cloacae P-2540; test: In vitro antibacterial activity (MIC); assay type: cell-based
Excerpt: as §1

[3] = tested on: Escherichia coli NIHJ JC-2; test: In vitro antibacterial activity (MIC); assay type: cell-based
Excerpt: as §1

Escherichia coli P-5101 [4] = test: In vitro antibacterial activity (MIC); assay type: cell-based; conditions: P5101; Escherichia coli P-5101; in vitro; read-out: minimum inhibitory concentration (MIC)
Excerpt: as §1

[5] = tested on: Klebsiella pneumoniae No. 13; test: In vitro antibacterial activity (MIC); assay type: cell-based; conditions: Klebsiella pneumoniae No. 13; in vitro; read-out: minimum inhibitory concentration (MIC)
Excerpt: as §1

Proteus mirabilis P-2381 = test: In vitro antibacterial activity (MIC); assay type: cell-based
Excerpt: as §1

Proteus morganii Kono = test: In vitro antibacterial activity (MIC); assay type: cell-based; conditions: Morganella morganii, read-out: minimum inhibitory concentration (MIC)
Excerpt: as §1

[6] = tested on: Pseudomonas aeruginosa No. 12; test: In vitro antibacterial activity (MIC); assay type: cell-based
Excerpt: as §1

[7] = tested on: Pseudomonas aeruginosa Tsuchijima; test: In vitro antibacterial activity (MIC); assay type: cell-based; conditions: read-out: minimum inhibitory concentration (MIC)
Excerpt: as §1

[8] = tested on: Salmonella enteritidis No. 1891; test: In vitro antibacterial activity (MIC); assay type: cell-based; conditions: Salmonella enterica; Salmonella enteritidis No. 1891; in vitro; read-out: minimum inhibitory concentration (MIC)
Excerpt: as §1

[9] = tested on: Salmonella typhimurium S-9; test: In vitro antibacterial activity (MIC); assay type: cell-based; conditions: Salmonella enterica, read-out: minimum inhibitory concentration (MIC)
Excerpt: as §1

[10] = tested on: Serratia marcescens IFO 3736; test: In vitro antibacterial activity (MIC); assay type: cell-based; conditions: IFO3736; Serratia marcescens IFO 3736; in vitro; read-out: minimum inhibitory concentration (MIC)
Excerpt: as §1

[11] = tested on: Staphylococcus aureus 209P JC-1; test: In vitro antibacterial activity (MIC); assay type: cell-based; conditions: read-out: minimum inhibitory concentration (MIC)
Excerpt: as §1

[12] = tested on: Staphylococcus aureus No. 50774; test: In vitro antibacterial activity (MIC); assay type: cell-based
Excerpt: as §1

[13] = tested on: Streptococcus pyrogenes 65A; test: In vitro antibacterial activity (MIC); assay type: cell-based; conditions: Streptococcus pyrogenes 65A; in vitro; read-out: minimum inhibitory concentration (MIC)
Excerpt: as §1

Escherichia coli P-140a = test: In vitro antibacterial activity (MIC); assay type: cell-based; conditions: for MIC: Escherichia coli, read-out: minimum inhibitory concentration (MIC)
Excerpt: as §1
(§2) *Clinically isolated Cephalexinresistant strain.

Shigella flexneri 2a = test: In vitro antibacterial activity (MIC); assay type: cell-based; conditions: Shigella flexneri 2a; clinically isolated Cephalexin-resistant strain; in vitro; read-out: minimum inhibitory concentration (MIC)
Excerpt: as §1, §2

[14] = tested on: Shigella flexneri 4a P-330; test: In vitro antibacterial activity (MIC); assay type: cell-based; conditions: 4AP330; Shigella flexneri 4a P-330; clinically isolated Cephalexin-resistant strain; in vitro; read-out: minimum inhibitory concentration (MIC)
Excerpt: as §1, §2

[15] = tested on: Staphylococcus aureus No. 50774; test: In vivo efficacy against systemic infection in mice; set-up: species or system male mice (ddY); conditions: NO.50774, 336 h, mice, sc, twice about 5 minutes and 6 hours after intravenous infection, observation 14 days, read-out: ED50 (median effective dose)
Description: (§3) Compounds 1,2, A and B were each dissolved in deionized water to prepare injectable solutions having various concentrations.
(§4) Each of the injectable solutions was administered to mice infected with each of the bacteria described below under the conditions described below, and the median effective doses (ED50) obtained are shown in Table II. […]
(§5) male mice (ddY) weighing about 20 g
(1) Staphylococcus aureus No. 50774; Intravenous infection with 50 to 100 LD50 (about 5×10^8 cells/mouse) of a bacterial suspension in saline. twice, about 5 minutes and 6 hours after infection. […]
(§6) Note; The numerals in the table show ED50 (mg/kg). ED50 values
(§7) were calculated in accordance with the BehrensKaerber method (Arch. Exp.

Escherichia coli P-5101 [16] = test: as above; set-up: species or system male mice (ddY); conditions: P5101, 168 h, mice, sc, twice about 5 minutes and 6 hours after intraperitoneal infection, observation 7 days, read-out: ED50 (median effective dose)
Description: as §3
Each of the injectable solutions was administered to mice infected with each of the bacteria described below under the conditions described below, and the median effective doses (ED50) obtained are shown in Table II.
as §5
(2) Escherichia coli P-5101; Intraperitoneal infection with 50 to 100 LD50 (about 9×10^6 cells/mouse) of a bacterial suspension in trypto-soy broth with 4% mucin.
twice, about 5 minutes and 6 hours after infection.
as §6, §7

[17] = tested on: Pseudomonas aeruginosa No. 12; test: as above; set-up: species or system male mice (ddY); conditions: NO.12, 168 h, mice, twice about 5 minutes and 6 hours after intraperitoneal infection, observation 7 days, read-out: ED50 (median effective dose)
Description: as §3, §4, §5
(3) Pseudomonas aeruginosa No. 12; Intraperitoneal infection with 50 to 100 LD50 (about 5×10^3 cells/mouse) of a bacterial suspension in trypto-soy broth with 4% mucin. twice, about 5 minutes and 6 hours after infection. […]
as §6, §7

Acute toxicity in mice = conditions: mouse, in vivo, iv, read-out: LD50 (median lethal dose)
Description: Injectable solutions containing compounds 1, 2 and compound A in various concentrations were administered to male mice (ddY) (4 to 8 in each group) in a dose of 0.1 ml per 10 g of body weight. The number of dead mice was counted after a lapse of 7 days, and the value of median lethal dose (LD50, mg/kg) was calculated.
Note: The LD50 values were calculated in accordance with the […]

[18] = P2540, Enterobacter cloacae P-2540, in vitro, read-out: minimum inhibitory concentration (MIC)
[19] = NIHJJC2, Escherichia coli NIHJ JC-2, in vitro, read-out: minimum inhibitory concentration (MIC)
[20] = P2381, Proteus mirabilis P-2381, in vitro, read-out: minimum inhibitory concentration (MIC)
[21] = Proteus morganii Kono, in vitro
[22] = Pseudomonas aeruginosa No. 12, in vitro, read-out: minimum inhibitory concentration (MIC)
[23] = Staphylococcus aureus 209P JC-1, in vitro
[24] = Staphylococcus aureus No. 50774, in vitro, read-out: minimum inhibitory concentration (MIC)

## Cn1nnnc1SCC1=C(C(=O)O)N2C(=O)C(NC(=O)C(NC(=O)c3c[nH]c4nc(N5CCNCC5)ncc4c3=O)c3ccc(O)cc3)C2SC1 (stereo not drawn)
Solubility in water; water / deionized water / aqueous medium
  Solubility in water (in words): soluble in deionized water in the same degree as compound A

## Cc1nnc(SCC2=C(C(=O)O)N3C(=O)[C@@H](NC(=O)Cn4cnnn4)[C@H]3SC2)s1 [B, Cefazolin]
[1]
  MIC: 0.39 µg/mL (≈ 0.858 µM)
[2]; [18]
  MIC: > 200 µg/mL
[3]; [19]
  MIC: 1.56 µg/mL (≈ 3.43 µM)
Escherichia coli P-5101 [4]
  MIC: 1.56 µg/mL (≈ 3.43 µM)
[5]
  MIC: 3.13 µg/mL (≈ 6.89 µM)
Proteus mirabilis P-2381; [20]
  MIC: 6.25 µg/mL (≈ 13.8 µM)
Proteus morganii Kono; [21]
  MIC: > 200 µg/mL
[6]; [22]
  MIC: > 200 µg/mL
[7]; Pseudomonas aeruginosa Tsuchijima, in vitro
  MIC: > 200 µg/mL
[8]
  MIC: 1.56 µg/mL (≈ 3.43 µM)
[9]; Salmonella typhimurium S-9, in vitro
  MIC: 1.56 µg/mL (≈ 3.43 µM)
[10]
  MIC: > 200 µg/mL
[11]; [23]
  MIC: 0.2 µg/mL (≈ 0.44 µM)
[12]; [24]
  MIC: 0.2 µg/mL (≈ 0.44 µM)
[13]
  MIC: 0.1 µg/mL (≈ 0.22 µM)
Escherichia coli P-140a
  minimum inhibitory concentration (MIC): > 200 µg/mL
Shigella flexneri 2a
  MIC: 3.13 µg/mL (≈ 6.89 µM)
[14]
  MIC: > 200 µg/mL
[15]
  ED50: 0.2 mg/kg
Escherichia coli P-5101 [16]
  ED50: 5.3 mg/kg
[17]; po
  ED50: > 100 mg/kg
[17]; sc
  ED50: > 800 mg/kg
Solubility in water
  solubility: 400 mg/mL (≈ 880000 µM)

## O=CN1CCN(c2ncc3c(=O)c(C(=O)N[C@@H](C(=O)N[C@@H]4C(=O)N5C(C(=O)O)=C(CSc6nnnn6CC(=O)O)CS[C@H]45)c4ccc(O)cc4)c[nH]c3n2)CC1 [Compound 1, Disodium 7-{D-α-[5,8-dihydro-2-(4-formyl-1-piperazinyl)-5-oxopyrido[2,3-d]pyrimidine-6-carboxamido]-α-p-hydroxyphenylacetamido}-3-(1-carboxylatomethyl-1,2,3,4-tetrazol-5-yl)thiomethyl-3-cephem-4-carboxylate]
[1]
  MIC: 3.13 µg/mL
[2]; Enterobacter cloacae, P2540, read-out: minimum inhibitory concentration (MIC)
  MIC: 1.56 µg/mL
[3]; Escherichia coli, NIHJJC2, read-out: minimum inhibitory concentration (MIC)
  MIC: 1.56 µg/mL
Escherichia coli P-5101 [4]
  MIC: 0.78 µg/mL
[5]
  MIC: 1.56 µg/mL
Proteus mirabilis P-2381; [20]
  MIC: 0.78 µg/mL
Proteus morganii Kono
  MIC: 1.56 µg/mL
[6]; Pseudomonas aeruginosa, NO.12, read-out: minimum inhibitory concentration (MIC)
  MIC: 6.25 µg/mL
[7]; Pseudomonas aeruginosa
  MIC: 1.56 µg/mL
[8]
  MIC: 0.78 µg/mL
[9]; TYPHIMURIUM
  MIC: 1.56 µg/mL
[10]
  MIC: 3.13 µg/mL
[11]; Staphylococcus aureus, 209P
  MIC: 6.25 µg/mL
[12]; Staphylococcus aureus, NO.50774, read-out: minimum inhibitory concentration (MIC)
  MIC: 6.25 µg/mL
[13]
  MIC: 0.2 µg/mL
Escherichia coli P-140a
  MIC: 1.56 µg/mL
Shigella flexneri 2a
  MIC: 1.56 µg/mL
[14]
  MIC: 6.25 µg/mL
[15]
  ED50: 13.1 mg/kg
Escherichia coli P-5101 [16]
  ED50: 1.5 mg/kg
[17]; po
  ED50: > 100 mg/kg
[17]; sc
  ED50: 4.8 mg/kg
Acute toxicity in mice
  LD50 at 168 h: > 2000 mg/kg
Solubility in water
  solubility: ~400 mg/mL

## O=CN1CCN(c2ncc3c(=O)c(C(=O)N[C@@H](C(=O)N[C@@H]4C(=O)N5C(C(=O)O)=C(CSc6nnc(CC(=O)O)s6)CS[C@H]45)c4ccc(O)cc4)c[nH]c3n2)CC1 [Compound 2, Disodium 7-{D-α-[5,8-dihydro-2-(4-formyl-1-piperazinyl)-5-oxopyrido[2,3-d]pyrimidine-6-carboxamido]-α-p-hydroxyphenylacetamido}-3-(5-carboxylatomethyl-1,3,4-thiadiazol-2-yl)thiomethyl-3-cephem-4-carboxylate]
[1]
  MIC: 3.13 µg/mL
[2]; [18]
  MIC: 3.13 µg/mL
[3]; [19]
  MIC: 0.78 µg/mL
Escherichia coli P-5101 [4]
  MIC: 0.78 µg/mL
[5]
  MIC: 1.56 µg/mL
Proteus mirabilis P-2381; Proteus mirabilis, P2381, read-out: minimum inhibitory concentration (MIC)
  MIC: 1.56 µg/mL
Proteus morganii Kono; [21]
  MIC: 3.13 µg/mL
[6]; [22]
  MIC: 6.25 µg/mL
[7]; Pseudomonas aeruginosa
  MIC: 1.56 µg/mL
[8]
  MIC: 0.78 µg/mL
[9]; TYPHIMURIUM
  MIC: 1.56 µg/mL
[10]
  MIC: 6.25 µg/mL
[11]; [23]
  MIC: 6.25 µg/mL
[12]; [24]
  MIC: 6.25 µg/mL
[13]
  MIC: 0.1 µg/mL
Escherichia coli P-140a
  MIC: 1.56 µg/mL
Shigella flexneri 2a
  MIC: 1.56 µg/mL
[14]
  MIC: 12.5 µg/mL
[15]
  ED50: 11.5 mg/kg
Escherichia coli P-5101 [16]
  ED50: 2.5 mg/kg
[17]; po
  ED50: > 100 mg/kg
[17]; sc
  ED50: 9.6 mg/kg
Acute toxicity in mice; male mice (ddY), after 7 days
  LD50 at 168 h: > 2000 mg/kg
Solubility in water
  solubility: ~150 mg/mL

— patent US4201781A, “Substituted 7[s-oxopyrido[2,3-d]pyrimidine carboxamido acetamido]cephalosporins” (Dainippon Pharmaceutical Co., Ltd., priority 1977, dated 1980)
